{"source": "patent US6388109B1", "about": "“14,15-cyclopropano steroids of the 19-norandrostane series, method for the production thereof and pharmaceutical preparations containing said compounds” (Jenapharm GmbH & Co. KG, priority 1998, dated 2002)", "key": {"[1]": {"system": "pregnancy maintenance (gestagenic action)", "assay": "pregnancy maintenance test in mice", "format": "in vivo", "excerpt": "Another example is the compound of general formula I—in which R1 and R2 in each case represent a hydrogen atom, R3 represents an α-position hydrogen atom, R4 stands for a β-position hydroxy group, and the cyclopropane ring is in α-position—17β-hydroxy-14,α,15α-methylenestr-4-en-3-one (J 1129), which in the same test has an approximately 50-fold stronger gestagenic action in comparison to the reference substance norethisterone acetate."}, "[2]": {"target": "T1, androgen receptor of the rat prostate (Rattus norvegicus, UniProt P15207)", "T1 construct": "androgen receptor of the rat prostate; from tissue; host or cells: rat prostate", "T1 sequence (P15207 1-902)": "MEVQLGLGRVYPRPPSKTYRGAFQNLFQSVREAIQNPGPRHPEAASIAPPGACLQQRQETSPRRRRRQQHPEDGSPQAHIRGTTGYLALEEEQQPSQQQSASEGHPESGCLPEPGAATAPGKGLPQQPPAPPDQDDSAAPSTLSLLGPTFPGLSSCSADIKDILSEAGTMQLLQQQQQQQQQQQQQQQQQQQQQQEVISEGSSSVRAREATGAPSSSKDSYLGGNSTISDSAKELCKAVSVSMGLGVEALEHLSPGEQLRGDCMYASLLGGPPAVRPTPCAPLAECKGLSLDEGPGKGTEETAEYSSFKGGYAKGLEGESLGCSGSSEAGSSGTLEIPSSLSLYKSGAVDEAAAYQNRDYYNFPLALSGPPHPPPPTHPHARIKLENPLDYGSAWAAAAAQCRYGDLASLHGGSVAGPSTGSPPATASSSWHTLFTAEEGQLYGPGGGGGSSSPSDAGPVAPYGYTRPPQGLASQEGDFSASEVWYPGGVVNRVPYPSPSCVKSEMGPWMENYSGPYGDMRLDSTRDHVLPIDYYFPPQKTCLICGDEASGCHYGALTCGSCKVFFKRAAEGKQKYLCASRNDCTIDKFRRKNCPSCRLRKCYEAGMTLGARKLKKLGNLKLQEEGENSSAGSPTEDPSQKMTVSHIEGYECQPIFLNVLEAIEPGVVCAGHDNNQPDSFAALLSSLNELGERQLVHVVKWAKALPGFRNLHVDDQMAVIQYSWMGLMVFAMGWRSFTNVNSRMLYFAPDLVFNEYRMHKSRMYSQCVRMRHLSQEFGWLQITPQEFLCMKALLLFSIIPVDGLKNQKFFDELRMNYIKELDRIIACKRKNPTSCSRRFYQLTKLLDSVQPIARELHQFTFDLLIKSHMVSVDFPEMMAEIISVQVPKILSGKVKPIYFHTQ", "assay": "binding to the androgen receptor of the rat prostate (reference substance: R 1881)"}, "[3]": {"target": "T2, progesterone receptor of the rabbit uterus (Oryctolagus cuniculus, UniProt P06186)", "T2 construct": "progesterone receptor of the rabbit uterus; from tissue; host or cells: rabbit uterus", "T2 sequence (P06186 1-930)": "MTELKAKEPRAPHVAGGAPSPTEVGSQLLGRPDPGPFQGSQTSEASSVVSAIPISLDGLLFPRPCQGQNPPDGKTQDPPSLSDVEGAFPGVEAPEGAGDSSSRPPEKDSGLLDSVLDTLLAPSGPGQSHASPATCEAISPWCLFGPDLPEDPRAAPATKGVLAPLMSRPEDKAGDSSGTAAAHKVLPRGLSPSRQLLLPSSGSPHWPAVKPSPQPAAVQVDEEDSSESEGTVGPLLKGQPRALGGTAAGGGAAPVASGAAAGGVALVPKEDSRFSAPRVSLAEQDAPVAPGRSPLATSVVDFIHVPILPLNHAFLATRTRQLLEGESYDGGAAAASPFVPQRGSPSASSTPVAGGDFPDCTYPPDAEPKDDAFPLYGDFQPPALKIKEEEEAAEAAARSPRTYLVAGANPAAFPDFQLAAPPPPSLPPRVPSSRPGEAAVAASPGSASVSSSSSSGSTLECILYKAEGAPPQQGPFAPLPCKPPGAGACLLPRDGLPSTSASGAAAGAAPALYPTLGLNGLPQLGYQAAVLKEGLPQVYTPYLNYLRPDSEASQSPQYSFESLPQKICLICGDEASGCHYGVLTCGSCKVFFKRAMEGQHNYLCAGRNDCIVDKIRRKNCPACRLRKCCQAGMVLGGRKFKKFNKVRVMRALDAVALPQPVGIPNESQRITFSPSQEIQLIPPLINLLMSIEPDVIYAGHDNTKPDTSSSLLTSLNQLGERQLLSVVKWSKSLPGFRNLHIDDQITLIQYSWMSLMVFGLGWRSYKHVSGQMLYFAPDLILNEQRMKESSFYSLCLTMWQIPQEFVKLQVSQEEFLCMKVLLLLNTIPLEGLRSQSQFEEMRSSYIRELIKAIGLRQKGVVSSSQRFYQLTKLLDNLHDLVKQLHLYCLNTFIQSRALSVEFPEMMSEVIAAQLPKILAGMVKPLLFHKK", "assay": "binding to the progesterone receptor of the rabbit uterus (reference substance: progesterone)", "excerpt": "Another example is the compound of general formula I—in which R1 and R2 in each case represent a hydrogen atom, R3 means an α-position chloromethyl group, R4 stands for a β-position hydroxy group, and the cyclopropane ring is in β-position—17α-chloromethyl-17β-hydroxy-14β,15β-methylenestr-4-en-3-one (Code J 1364), which binds with 710±80% to the progesterone receptor of the rabbit uterus (reference substance: progesterone)."}}, "data": [{"molecule": "C[C@]12CC[C@H]3[C@@H](CCC4=CC(=O)CC[C@@H]43)[C@@]13C[C@H]3C[C@@H]2O", "note": "[J 1129, 17β-Hydroxy-14α,15α-methylenestr-4-en-3-one]", "values": [{"measurement": "gestagenic action in comparison to the reference substance norethisterone acetate", "setting": "[1]; pregnancy maintenance test, stronger than norethisterone acetate", "result": "approximately 50 fold"}, {"measurement": "binding to the androgen receptor", "setting": "[2]; reference substance: 17β-hydroxy-17α-methyl-estra-4,9,11-trien-3-one (R 1881)", "result": "59±7", "unit": "%"}, {"measurement": "binding to the progesterone receptor", "setting": "[3]", "result": "42±5", "unit": "%"}]}, {"molecule": "COC[C@]1(O)C[C@H]2C[C@]23[C@@H]2CCC4=CC(=O)CC[C@@H]4[C@H]2CC[C@]13C", "note": "[J 1222, 17β-Hydroxy-17α-(methoxymethyl)-14β,15β-methylenestr-4-en-3-one]", "values": [{"measurement": "effectiveness in the pregnancy maintenance test compared with norethisterone acetate", "setting": "[1]; reference gestagen norethisterone acetate", "result": "just as effective"}, {"measurement": "affinity to the androgen receptor (in words)", "setting": "[2]; reference substance: R 1881", "result": "virtually no affinity"}, {"measurement": "binding to the progesterone receptor", "setting": "[3]", "result": "52±4", "unit": "%"}]}, {"molecule": "CC12CCC3C4CCC(=O)C=C4CCC3C13CC3CC2(O)CCl", "note": "(stereo not drawn) [J 1364, 17α-Chloromethyl-17β-hydroxy-14β,15β-methylenestr-4-en-3-one]", "values": [{"measurement": "binding to the progesterone receptor", "setting": "[3]", "result": "710±80", "unit": "%"}]}]}
